This note sets out measurements from US12053459B2, “CDK2 inhibitors and methods of using the same” (Cedilla Therapeutics, Inc., priority 2021, dated 2024).

The subject of assay [1] is Kuramochi cells. The assay can be described thus: BrdU cell proliferation assay (colorimetric ELISA), Kuramochi cells. The note with it: class symbols A-D. It counts as cell-based. As to the method:
A BrdU assay was used as a measure of proliferation based on the DNA replication process of proliferating cells. BrdU, a pyrimidine analog, is added to the cell culture and incorporated into the DNA of proliferating cells. The presence of the BrdU analog was then measured through a colorimetric ELISA. After fixation and permeabilization of cells, peroxidase-conjugated antibody recognizing BrdU is added and allowed to incubate, followed by thorough washing to remove unbound antibody. In order to quantify the amount of bound antibody, peroxidase substrate is added and produces a color that can be measured at 450 nm.
On day −1, Kuramochi cells (Sekisui XenoTech JCRB0098) were seeded at 2,000 cells/well in columns 2-12 of a 96 well plate (Corning, CLS3596) in 150 uL media and allowed to adhere overnight at 37 degree with 5% CO2. In order to assess specificity of the compounds, Kuramochi RB^KO cells were also plated and treated, as RB^KO cells were not expected to show a proliferative response to CCNE/CDK specific inhibitors.
On day 0, the source plate was prepared by adding 10 mM compounds and performing 3-fold serial dilutions for a 4-point dose response of each compound. Using a multichannel pipette, 2 uL of the contents of the source plate were stamped into an intermediate plate with 500 uL of RPMI 1640 Media, GlutaMAX Supplement (Life Technologies, 61870127) in each well of a Nunc 96 DeepWell™ plate, non-treated 96 DeepWell plate, 2 mL/well, sterile, natural, 60/cs (Sigma Z717274) and mixed thoroughly. 50 uL from row A of this intermediate plate were added to rows A-H of one plate of previously seeded Kuramochi cells, and each subsequent row of the intermediate plate was added to a full plate of cells.
On day 4, the plates were developed using the BrdU ELISA Cell Proliferation Assay according to manufacturer's instructions (Roche, 11647229001). Briefly, BrdU was diluted 1:100 in Gibco®, Opti-MEM® and 20 μL/well was added, shaken for 10 minutes at 350 rpm, and then returned to the incubator for 1 hour. Following incubation, the medium was discarded, and the cells were fixed by adding 200 μL of Fix/Denature solution. The anti-BrdU peroxidase antibody was diluted 1:1000 in OptiMEM, added at 100 μL/well, and incubated while shaking (350 rpm) for one hour. Three washes with PBS were performed to remove any unbound antibody, followed by the addition of 100 μL of substrate solution to each well. […] was then added to halt the reaction, and plates were read out using an Envision spectrophotometer (Perkin Elmer) set to read 450 nm absorbance. Background absorbance values from empty wells were subtracted from all samples and then normalized to DMSO treated wells.
Background: ELISA stands for enzyme-linked immunosorbent assay.

Assay [2] addresses CDK2/Cyclin E1(14-475) (Homo sapiens, UniProt P24941). Put plainly: Caliper LabChip EZ Reader mobility shift assay, inhibition of CDK2/Cyclin E1 activity. In kind it is biochemical. The note with it: class symbols A-D. As to the method:
Inhibition of CDK2/Cyclin E1 activity in the presence of compounds of the present disclosure was evaluated using a Caliper LabChip® EZ Reader mobility shift assay. In the assay, activated CDK2/Cyclin E1 catalyzes the phosphorylation of a fluorescently tagged peptide 5-FAM-QSPKKG-CONH2 (PerkinElmer, FL Peptide 18) which induces a difference in capillary electrophoresis mobility. The peptide substrate and product were measured, and the conversion ratio was used to determine the inhibition (as % activity and IC50 values) of CDK2/Cyclin E1. Reactions contained 50 mM HEPES pH 7.5, 10 mM MgCl2, 1 mM EDTA, 2 mM DTT, 0.01% Brij35, 0.5 mg/mL BSA, 0.1% DMSO, 2.5 nM CDK2/Cyclin E1(14-475), 100 μM ATP, and 1.5 μM fluorescent peptide substrate.
Dose titrations of inhibitors in 100% DMSO were combined with 3.25 nM CDK2/Cyclin E1(14-475) and 130 μM of ATP in reaction buffer. The mixtures were incubated for 30 minutes before the addition of fluorescent peptide substrate to initiate the kinase reaction. The final conditions were 2.5 nM CDK2/Cyclin E1(14-475), 100 μM ATP, and 1.5 μM fluorescent peptide. The reactions were stopped after 100 minutes with the addition of EDTA (6 mM final EDTA concentration). The stopped reactions were analyzed on a Caliper LabChip® EZ Reader II. The conversion ratios were normalized to yield % activity, plotted against compound concentration, and fit to a four-parameter equation to determine the IC50 for each compound.

`CNC(=O)[C@H](CCCc1ccccc1)NC(=O)C1CN(C(=O)Cc2c[nH]c3cc(Cl)ccc23)CC2CN(C(=O)c3ccc4c(c3)CC(=O)N4)CC21` (single isomer, unassigned) [I-22]: the IC50 in assay [1] and in assay [2] was > 10 µM each time.

With `CNC(=O)[C@H](CCCc1ccccc1)NC(=O)C1CN(C(=O)Cc2c[nH]c3cc(Cl)ccc23)CC2CN(C(=O)c3ccc4c(c3)CC(=O)N4)CC21` (single isomer, unassigned) [I-23], the IC50 in assay [1] and in assay [2] was > 10 µM in each case.

`CNC(=O)[C@H](CCCc1ccccc1)NC(=O)C1CN(C(=O)Cc2c[nH]c3cc(Cl)ccc23)CC2CN(C(=O)c3ccc4c(c3)n(C)c(=O)n4C(C)C)CC21` (single isomer, unassigned) [I-86]: the IC50 in assay [1] and in assay [2] was > 10 µM each time.

On to `CNC(=O)[C@H](CCCc1ccccc1)NC(=O)C1CN(C(=O)Cc2c[nH]c3cc(Cl)ccc23)CC2CN(C(=O)c3ccc4c(c3)n(C)c(=O)n4C(C)C)CC21` (single isomer, unassigned) [I-87], for which the half-maximal inhibitory concentration (IC50) (commonly the midpoint of a concentration-inhibition curve) in assay [1] is > 10 µM; in assay [2], ≤ 0.5 µM.

Regarding `COc1cc(C(=O)N2CC3CN(C(=O)Cc4c[nH]c5cc(Cl)ccc45)CC(C(=O)NCC(=O)N(C)CCCc4ccccc4)C3C2)ccc1OC(C)C` (single isomer, unassigned) [I-100], the 50% inhibitory concentration (IC50) is 0.5 to 5 µM in assay [1] and ≤ 0.5 µM in assay [2].

As for `COc1cc(C(=O)N2CC3CN(C(=O)Cc4c[nH]c5cc(Cl)ccc45)CC(C(=O)NCC(=O)N(C)CCCc4ccccc4)C3C2)ccc1OC(C)C` (single isomer, unassigned) [I-101], the IC50 in assay [1] and in assay [2] was > 10 µM in each case.

As to `CNC(=O)[C@H](Cc1c[nH]c2ccccc12)NC(=O)C1CN(C(=O)Cc2c[nH]c3cc(Cl)ccc23)CC2CN(C(=O)c3ccc(OC(C)C)c(OC)c3)CC21` (single isomer, unassigned) [I-110], the IC50 in assay [1] and in assay [2] was > 10 µM in each case.

For the molecule `CNC(=O)[C@H](Cc1c[nH]c2ccccc12)NC(=O)C1CN(C(=O)Cc2c[nH]c3cc(Cl)ccc23)CC2CN(C(=O)c3ccc(OC(C)C)c(OC)c3)CC21` (single isomer, unassigned) [I-111], the figures for the IC50 in assay [1] and in assay [2] were > 10 µM and ≤ 0.5 µM, respectively.

As for `COc1cc(C(=O)N2CC3CN(C(=O)Cc4c[nH]c5cc(Cl)ccc45)CC(C(=O)N[C@H]4CCCN(Cc5ccccc5)C4)C3C2)ccc1OC(C)C` (single isomer, unassigned) [I-117], the IC50 is > 10 µM in assay [1] and 0.5 to 5 µM in assay [2].

Take `COc1cc(C(=O)N2CC3CN(C(=O)Cc4c[nH]c5cc(Cl)ccc45)CC(C(=O)N[C@H]4CCCN(Cc5ccccc5)C4)C3C2)ccc1OC(C)C` (single isomer, unassigned) [I-118]: the concentration for half-maximal inhibition (IC50) in assay [1] and in assay [2] was > 10 µM each time.

For the molecule `CNC(=O)[C@H](CCCc1cccc(O)c1)NC(=O)C1CN(C(=O)Cc2c[nH]c3cc(Cl)ccc23)CC2CN(C(=O)c3ccc(OC(C)C)c(OC)c3)CC21` (single isomer, unassigned) [I-152], the IC50 in assay [1] and in assay [2] was > 10 µM throughout.

Regarding `CNC(=O)[C@H](CCCc1cccc(O)c1)NC(=O)C1CN(C(=O)Cc2c[nH]c3cc(Cl)ccc23)CC2CN(C(=O)c3ccc(OC(C)C)c(OC)c3)CC21` (single isomer, unassigned) [I-153], the IC50 was > 10 µM in assay [1] and 0.5 to 5 µM in assay [2].

For the molecule `CNC(=O)[C@H](CCCc1ccccc1)NC(=O)C1CN(C(=O)c2cn3ccncc3n2)CC2CN(C(=O)c3ccc(OC(C)C)c(OC)c3)CC21` (single isomer, unassigned) [I-194], the IC50 in assay [1] was > 10 µM.

Consider `CNC(=O)[C@H](CCCc1ccccc1)NC(=O)C1CN(C(=O)c2cn3ccncc3n2)CC2CN(C(=O)c3ccc(OC(C)C)c(OC)c3)CC21` (single isomer, unassigned) [I-195], for which the IC50 in assay [1] and in assay [2] was > 10 µM each time.

With `CNC(=O)[C@H](CCCc1ccccc1)NC(=O)C1CN(C(=O)c2coc(Cl)n2)CC2CN(C(=O)c3ccc(OC(C)C)c(OC)c3)CC21` (single isomer, unassigned) [I-232], the IC50 in assay [1] and in assay [2] was > 10 µM each time.

Regarding `CNC(=O)[C@H](CCCc1ccccc1)NC(=O)C1CN(C(=O)Cc2c[nH]c3cc(Cl)ccc23)CC2CN(C(=O)c3ccc(O)cc3)CC21` (some centres unmarked) [I-4], in assay [2], the IC50 was > 10 µM.

For the molecule `CNC(=O)[C@H](CCCc1ccccc1)NC(=O)C1CN(C(=O)Cc2c[nH]c3cc(Cl)ccc23)CC2CN(C(=O)c3ccc(OC)c(OC)c3)CC21` (some centres unmarked) [I-33], the IC50 in assay [2] is 5 to 10 µM.

As to `CNC(=O)[C@H](CCCc1ccccc1)NC(=O)C1CN(C(=O)Cc2c[nH]c3cc(Cl)ccc23)CC2CN(C(=O)c3ccc4ncccc4c3)CC21` (some centres unmarked) [I-36], in assay [2], the IC50 was > 10 µM.

Consider `CNC(=O)[C@H](CCCc1ccccc1)NC(=O)C1CN(C(=O)Cc2c[nH]c3cc(Cl)ccc23)CC2CN(C(=O)c3cccc(OC)c3)CC21` (some centres unmarked) [I-49], for which the IC50 in assay [1] is > 10 µM.

Consider `CNC(=O)[C@H](CCCc1ccccc1)NC(=O)C1CN(C(=O)Cc2c[nH]c3cc(Cl)ccc23)CC2CN(C(=O)C3CCCCC3)CC21` (some centres unmarked) [I-51], for which, in assay [1], the concentration for half-maximal inhibition (IC50) was > 10 µM.

With `CNC(=O)[C@H](CCCc1ccccc1)NC(=O)C1CN(C(=O)Cc2c[nH]c3cc(Cl)ccc23)CC2CN(C(=O)c3ccc4c(c3)CCO4)CC21` (some centres unmarked) [I-53], in assay [1], the IC50 is > 10 µM.

For the molecule `CNC(=O)[C@H](CCCc1ccccc1)NC(=O)C1CN(C(=O)Cc2c[nH]c3cc(Cl)ccc23)CC2CN(C(=O)c3cccc(-c4cccnc4)c3)CC21` (some centres unmarked) [I-63], in assay [1], the IC50 is > 10 µM.

As for `CNC(=O)[C@H](CCCc1ccccc1)NC(=O)C1CN(C(=O)Cc2c[nH]c3cc(Cl)ccc23)CC2CN(C(=O)c3ncc(-c4ccccc4)s3)CC21` (some centres unmarked) [I-68], in assay [1], the concentration for half-maximal inhibition (IC50) was > 10 µM.

On to `CNC(=O)[C@H](CCCc1ccccc1)NC(=O)C1CN(C(=O)Cc2c[nH]c3cc(Cl)ccc23)CC2CN(C(=O)c3ccc4oc(=O)n(C)c4c3)CC21` (some centres unmarked) [I-76], for which, in assay [1], the IC50 is > 10 µM.

With `CNC(=O)[C@H](CCCC(C)(C)C)NC(=O)C1CN(C(=O)Cc2c[nH]c3cc(Cl)ccc23)CC2CN(C(=O)c3ccc(OC(C)C)c(OC)c3)CC21` (some centres unmarked) [I-96], the IC50 in assay [1] was > 10 µM.

Consider `COc1cc(C(=O)N2CC3CN(C(=O)Cc4c[nH]c5cc(Cl)ccc45)CC(C(=O)NCCCCc4ccccc4)C3C2)ccc1OC(C)C` (centres unmarked) [I-119], for which the 50% inhibitory concentration (IC50) in assay [1] was > 10 µM.

Regarding `CNC(=O)[C@@H](Cc1ccccc1)NC(=O)C1CN(C(=O)Cc2c[nH]c3cc(Cl)ccc23)CC2CN(C(=O)c3ccc(OC(C)C)c(OC)c3)CC21` (some centres unmarked) [I-120], in assay [1], the IC50 is > 10 µM.

As to `CNC(=O)[C@@H](Cc1ccc(O)cc1)NC(=O)C1CN(C(=O)Cc2c[nH]c3cc(Cl)ccc23)CC2CN(C(=O)c3ccc(OC(C)C)c(OC)c3)CC21` (some centres unmarked) [I-121], the IC50 in assay [1] was > 10 µM.

With `CNC(=O)[C@H](CCCc1ccccc1)NC(=O)C1CN(C(=O)Cc2cccnc2)CC2CN(C(=O)c3ccc(OC(C)C)c(OC)c3)CC21` (some centres unmarked) [I-224], in assay [2], the IC50 is > 10 µM.

Consider `CNC(=O)[C@H](CCCc1ccccc1)NC(=O)C1CN(CCc2c[nH]c3cc(Cl)ccc23)CC2CN(C(=O)c3ccc(OC(C)C)c(OC)c3)CC21` (stereo partly drawn) [I-254, 5-(2-(6-chloro-1H-indol-3-yl)ethyl)-2-(4-isopropoxy-3-methoxybenzoyl)-N—((S)-1-(methylamino)-1-oxo-5-phenylpentan-2-yl)octahydro-1H-pyrrolo[3,4-c]pyridine-7-carboxamide], for which, in assay [2], the IC50 is > 10 µM.
